In PubChem BioAssay (NCI):
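Cultured in 96-well plates, cells were exposed to test compound for 48 hours across five concentrations. Definition used: TGI = concentration required for complete inhibition of growth.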

Key:
Experiment in all cases: DTP human tumour cell line panel, 48 h
786-0 renal = test system: 786-0 renal
A549 NSCLC = test system: A549 NSCLC
ACHN renal = test system: ACHN renal
CCRF-CEM leukemia = test system: CCRF-CEM leukemia
COLO 205 colon = test system: COLO 205 colon
DMS 114 small cell lung = test system: DMS 114 small cell lung
EKVX NSCLC = test system: EKVX NSCLC
HCC-2998 colon = test system: HCC-2998 colon
HCT-15 colon = test system: HCT-15 colon
HL-60(TB) leukemia = test system: HL-60(TB) leukemia
HOP-62 NSCLC = test system: HOP-62 NSCLC
HT29 colon = test system: HT29 colon
IGROV1 ovarian = test system: IGROV1 ovarian
K-562 leukemia = test system: K-562 leukemia
KM20L2 colon = test system: KM20L2 colon
LXFL 529 NSCLC = test system: LXFL 529 NSCLC
M14 melanoma = test system: M14 melanoma
M19-MEL melanoma = test system: M19-MEL melanoma
MOLT-4 leukemia = test system: MOLT-4 leukemia
NCI-H522 lung = test system: NCI-H522 lung
OVCAR-3 ovarian = test system: OVCAR-3 ovarian
OVCAR-8 ovarian = test system: OVCAR-8 ovarian
RPMI-8226 leukemia = test system: RPMI-8226 leukemia
RXF-631 renal = test system: RXF-631 renal
SF-268 CNS = test system: SF-268 CNS
SF-295 CNS = test system: SF-295 CNS
SK-MEL-28 melanoma = test system: SK-MEL-28 melanoma
SK-OV-3 ovarian = test system: SK-OV-3 ovarian
SNB-19 CNS = test system: SNB-19 CNS
SNB-75 CNS = test system: SNB-75 CNS
SR leukemia = test system: SR leukemia
SW-620 colon = test system: SW-620 colon
U251 CNS = test system: U251 CNS
UACC-62 melanoma = test system: UACC-62 melanoma
UO-31 renal = test system: UO-31 renal
A498 renal = test system: A498 renal
DLD-1 colon = test system: DLD-1 colon
DMS 273 small cell lung = test system: DMS 273 small cell lung
HCT-116 colon = test system: HCT-116 colon
KM12 colon = test system: KM12 colon
LOX IMVI melanoma = test system: LOX IMVI melanoma
MALME-3M melanoma = test system: MALME-3M melanoma
NCI-H23 lung = test system: NCI-H23 lung
NCI-H460 lung = test system: NCI-H460 lung
OVCAR-4 ovarian = test system: OVCAR-4 ovarian
RXF 393 renal = test system: RXF 393 renal
SK-MEL-5 melanoma = test system: SK-MEL-5 melanoma
SN12C renal = test system: SN12C renal
SNB-78 CNS = test system: SNB-78 CNS
TK-10 renal = test system: TK-10 renal
UACC-257 melanoma = test system: UACC-257 melanoma
XF 498 CNS = test system: XF 498 CNS

Measured: TGI

CC1=C(C)C(=O)C2=C(OCCCO2)C1=O
44.9 µM: SR leukemia
> 100 µM: A549 NSCLC | COLO 205 colon | HCC-2998 colon | HCT-15 colon | HOP-62 NSCLC | KM20L2 colon | SK-MEL-28 melanoma | SK-OV-3 ovarian | SNB-19 CNS | U251 CNS
54 µM: K-562 leukemia
31.5 µM: RXF-631 renal
31.2 µM: SW-620 colon
32.7 µM: UACC-62 melanoma
32.4 µM: ACHN renal
33.1 µM: NCI-H522 lung
31.9 µM: LXFL 529 NSCLC
32 µM: OVCAR-3 ovarian
30.1 µM: UO-31 renal
33.3 µM: 786-0 renal | IGROV1 ovarian | M19-MEL melanoma
31 µM: EKVX NSCLC
33.2 µM: SF-268 CNS
70.9 µM: SF-295 CNS
32.9 µM: OVCAR-8 ovarian
5.33 µM: MOLT-4 leukemia
36.1 µM: RPMI-8226 leukemia
8.11 µM: CCRF-CEM leukemia
30.7 µM: M14 melanoma
46.3 µM: HT29 colon
19 µM: HL-60(TB) leukemia
33.5 µM: DMS 114 small cell lung
51.7 µM: SNB-75 CNS

C#CCSc1nc(N)c2ncn(C3OC(CO)C(O)C3O)c2n1 (stereo unspecified)
not listed: KM20L2 colon | M14 melanoma | RXF-631 renal | SK-OV-3 ovarian | SNB-75 CNS | UACC-62 melanoma
> 100 µM: all other assays above
